The record followed here is PubChem BioAssay AID212 (DTP/NCI, 2004).

The structures appear in SMILES notation. Values joined by “and” are separate entries in the source; they are usually repeats but may differ in a detail not shown here. Equal values may be shown once. Inconclusive results are not listed.

This assay relates to BDF1 mice, colon carcinoma 38 sc, T/C %. Description: NCI In Vivo Anticancer Drug Screen. Data for tumor model Colon Carcinoma 38 (subcutaneous) in B6D2F1 (BDF1) mice. The conditions noted are these: endpoint: median tumor weight (est.), higher = larger tumour. The method in brief:
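T/C readout: treated group (T) measurement over vehicle control group (C) measurement. Endpoint is survival or tumor size in mice bearing a transplanted tumor.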

[1] abbreviates: dose: 50.0 mg/kg/injection, schedule: Q07DX002 (ip), vehicle: Klucel (hydroxypropylcellulose) (HPC).
[2] abbreviates: dose: 200.0 mg/kg/injection, schedule: Q07DX002 (ip), vehicle: Klucel (hydroxypropylcellulose) (HPC).
Where [3] appears, read: dose: 50.0 mg/kg/injection, schedule: Q07DX002 (ip), vehicle: saline with Tween-80.
The mark [4] stands for this setting: dose: 50.0 mg/kg/injection, schedule: Q07DX002 (ip), vehicle: saline.
[5] abbreviates: dose: 100.0 mg/kg/injection, schedule: Q07DX002 (ip), vehicle: saline.
Setting [6] is: dose: 6.25 mg/kg/injection, schedule: Q07DX002 (ip), vehicle: saline.
Where [7] appears, read: dose: 12.5 mg/kg/injection, schedule: Q07DX002 (ip), vehicle: saline.
[8] abbreviates: dose: 25.0 mg/kg/injection, schedule: Q07DX002 (ip), vehicle: saline.
The mark [9] stands for this setting: dose: 400.0 mg/kg/injection, schedule: Q07DX002 (ip), vehicle: saline.
[10] abbreviates: dose: 200.0 mg/kg/injection, schedule: Q07DX002 (ip), vehicle: saline.

Turning to `C[C@]12C=CC(=O)C=C1CC[C@@H]1[C@@H]2C(=O)C[C@@]2(C)[C@H]1CC[C@]2(O)C(=O)CO`, the T/C (dose: 12.5 mg/kg/injection, schedule: Q07DX002 (ip), vehicle: Klucel (hydroxypropylcellulose) (HPC)) was 108 % of control; the T/C (dose: 25.0 mg/kg/injection, schedule: Q07DX002 (ip), vehicle: Klucel (hydroxypropylcellulose) (HPC)) is 115 % of control; the T/C (dose: 25.0 mg/kg/injection, schedule: Q07DX003 (ip), vehicle: Klucel (hydroxypropylcellulose) (HPC)) is 97 % of control; the T/C under setting [1] was 93 % of control and 102 % of control; the T/C (dose: 50.0 mg/kg/injection, schedule: Q07DX003 (ip), vehicle: Klucel (hydroxypropylcellulose) (HPC)) is 100 % of control; the T/C (dose: 100.0 mg/kg/injection, schedule: Q07DX002 (ip), vehicle: Klucel (hydroxypropylcellulose) (HPC)) was 110 % of control. Also, the T/C (dose: 100.0 mg/kg/injection, schedule: Q07DX003 (ip), vehicle: Klucel (hydroxypropylcellulose) (HPC)) was 76 % of control; the T/C under setting [2] is 81 % of control and 101 % of control; the T/C (dose: 200.0 mg/kg/injection, schedule: Q07DX003 (ip), vehicle: Klucel (hydroxypropylcellulose) (HPC)) is 88 % of control; the T/C (dose: 400.0 mg/kg/injection, schedule: Q07DX003 (ip), vehicle: Klucel (hydroxypropylcellulose) (HPC)) is 45 % of control; the T/C (dose: 800.0 mg/kg/injection, schedule: Q07DX002 (ip), vehicle: Klucel (hydroxypropylcellulose) (HPC)) was 60 % of control; the T/C (dose: 1200.0 mg/kg/injection, schedule: Q07DX002 (ip), vehicle: Klucel (hydroxypropylcellulose) (HPC)) was 80 % of control.
On to `N#CC(OC1OC(COC2OC(CO)C(O)C(O)C2O)C(O)C(O)C1O)c1ccccc1` (configuration not stated), for which the T/C was 98 % of control (dose: 50.0 mg/kg/injection, schedule: Q07DX002 (ip), vehicle: water); 87 % of control (dose: 100.0 mg/kg/injection, schedule: Q07DX002 (ip), vehicle: water); 112 % of control (dose: 200.0 mg/kg/injection, schedule: Q07DX002 (ip), vehicle: water); 102 % of control (dose: 400.0 mg/kg/injection, schedule: Q07DX002 (ip), vehicle: water); 91 % of control (dose: 1600.0 mg/kg/injection, schedule: Q07DX002 (ip), vehicle: water).
With `[O-][n+]1c(CN2CCCCC2)nc2cccc3c2c1-c1ccccc1-3`, the T/C is 66 % of control (dose: 12.5 mg/kg/injection, schedule: Q07DX002 (ip), vehicle: saline with Tween-80); 47 % of control under setting [3]; 57 % of control (dose: 200.0 mg/kg/injection, schedule: Q07DX002 (ip), vehicle: saline with Tween-80); 72 % of control and 81 % of control (dose: 400.0 mg/kg/injection, schedule: Q07DX002 (ip), vehicle: saline with Tween-80).
As for `O=C1OC(C(O)CO)C(O)=C1O` (configuration not stated), the T/C was 43 % of control under setting [4]; 100 % of control under setting [5]; 83 % of control (dose: 800.0 mg/kg/injection, schedule: Q07DX002 (ip), vehicle: saline); 100 % of control (dose: 1600.0 mg/kg/injection, schedule: Q07DX002 (ip), vehicle: saline).
`CN(C)CCCNc1c2ccccc2nc2cccc([N+](=O)[O-])c12`: the T/C is 112 % of control and 104 % of control (dose: 0.03 mg/kg/injection, schedule: Q07DX002 (ip), vehicle: saline); 116 % of control (dose: 0.06 mg/kg/injection, schedule: Q07DX002 (ip), vehicle: saline); 93 % of control (dose: 0.06 mg/kg/injection, schedule: Q07DX003 (ip), vehicle: saline); 98 % of control (dose: 0.12 mg/kg/injection, schedule: Q07DX003 (ip), vehicle: saline); 101 % of control (dose: 0.25 mg/kg/injection, schedule: Q07DX003 (ip), vehicle: saline).
For `CCCCCCCCCCCCCCC/C([O-])=N/[N+](C)(C)CC(C)O` (configuration not stated), the T/C runs as follows: (dose: 25.0 mg/kg/injection, schedule: Q01DX001 (ip), vehicle: saline) 164 % of control; (dose: 200.0 mg/kg/injection, schedule: Q01DX001 (ip), vehicle: saline) 120 % of control; (dose: 400.0 mg/kg/injection, schedule: Q01DX001 (ip), vehicle: saline) 85 % of control.
In the case of `CC[N](CC)[Ge]([CH2]C)[CH2]C.CC[N](CC)[Ge]([CH2]C)[CH2]C`, the T/C runs as follows: under setting [6], 87 % of control; (dose: 6.25 mg/kg/injection, schedule: Q07DX002 (ip), vehicle: suspension in saline) 77 % of control; under setting [7], 77 % of control; (dose: 12.5 mg/kg/injection, schedule: Q07DX002 (ip), vehicle: suspension in saline) 69 % of control; under setting [8], 79 % of control; (dose: 25.0 mg/kg/injection, schedule: Q07DX002 (ip), vehicle: suspension in saline) 95 % of control. The T/C was 77 % of control under setting [4]; 84 % of control (dose: 50.0 mg/kg/injection, schedule: Q07DX002 (ip), vehicle: suspension in saline); 61 % of control under setting [5].
Turning to `COC1C(O)CC(OC2CC(Oc3cc4cc5c(c(O)c4c(O)c3C)C(=O)[C@@H](OC3CC(OC4CC(OC6CC(C)(O)C(OC(C)=O)C(C)O6)C(O)C(C)O4)C(O)C(C)O3)[C@H]([C@H](OC)C(=O)[C@@H](O)[C@@H](C)O)C5)OC(C)C2OC(C)=O)OC1C` (some centres not stated), the T/C by setting is: (dose: 0.04 mg/kg/injection, schedule: Q07DX002 (ip), vehicle: Klucel (hydroxypropylcellulose) (HPC)) 109 % of control and 105 % of control; (dose: 0.08 mg/kg/injection, schedule: Q07DX002 (ip), vehicle: Klucel (hydroxypropylcellulose) (HPC)) 207 % of control and 76 % of control; (dose: 0.16 mg/kg/injection, schedule: Q07DX002 (ip), vehicle: Klucel (hydroxypropylcellulose) (HPC)) 71 % of control.
Consider `OCC1(CO)COC2(CCCCC2)N1`, for which the T/C reads like this: under setting [5], 118 % of control and 102 % of control; under setting [9], 112 % of control and 122 % of control.
For the compound `CCC1CC2CN(CCc3c([nH]c4ccccc34)C(C(=O)OC)(c3cc4c(cc3OC)N(C)C3C(O)(C(=O)OC)C(OC(C)=O)C5(CC)C=CCN6CCC43C65)C2)C1` (configuration not stated), the T/C by setting is: (dose: 0.25 mg/kg/injection, schedule: Q07DX002 (ip), vehicle: suspension in saline) 162 % of control; (dose: 0.5 mg/kg/injection, schedule: Q07DX002 (ip), vehicle: suspension in saline) 158 % of control; (dose: 1.0 mg/kg/injection, schedule: Q07DX002 (ip), vehicle: suspension in saline) 167 % of control.
In the case of `Cc1cn(C2CC3[O][Sn]([c]4ccccc4)([c]4ccccc4)[O]CC3O2)c(=O)[nH]c1=O` (configuration not stated), the T/C by setting is: under setting [7], 110 % of control; under setting [8], 100 % of control; under setting [4], 95 % of control; under setting [5], 110 % of control; under setting [10], 99 % of control.
As to `CN1CCN(CCCN2c3ccccc3Sc3ccc(C(F)(F)F)cc32)CC1`, the T/C (dose: 6.25 mg/kg/injection, schedule: Q07DX002 (ip), vehicle: saline with Tween-80) was 104 % of control; the T/C under setting [6] is 116 % of control; the T/C under setting [7] is 112 % of control; the T/C (dose: 25.0 mg/kg/injection, schedule: Q07DX002 (ip), vehicle: saline with Tween-80) is 91 % of control; the T/C under setting [8] is 97 % of control; the T/C under setting [3] is 96 % of control. In addition, the T/C runs as follows: under setting [4], 90 % of control; under setting [5], 96 % of control; under setting [10], 74 % of control.
In the case of `CS(=O)(=O)OCCN(CCOS(C)(=O)=O)c1ccc(C=Nc2ccc(-c3csc(COc4ccccc4)n3)cc2)cc1`, the T/C reads like this: under setting [1], 158 % of control; under setting [2], 97 % of control and 100 % of control; (dose: 400.0 mg/kg/injection, schedule: Q07DX002 (ip), vehicle: Klucel (hydroxypropylcellulose) (HPC)) 46 % of control.
`Nc1ccc(C(=O)O)c(O)c1`: the T/C reads like this: (dose: 42.0 mg/kg/injection, schedule: Q07DX002 (ip), vehicle: saline with Tween-80) 120 % of control; (dose: 84.0 mg/kg/injection, schedule: Q07DX002 (ip), vehicle: saline with Tween-80) 89 % of control; (dose: 168.0 mg/kg/injection, schedule: Q07DX002 (ip), vehicle: saline with Tween-80) 93 % of control; (dose: 337.0 mg/kg/injection, schedule: Q07DX002 (ip), vehicle: saline with Tween-80) 80 % of control; (dose: 675.0 mg/kg/injection, schedule: Q07DX002 (ip), vehicle: saline with Tween-80) 111 % of control.
`COC(=O)CC(N)C(=O)O` (configuration not stated): the T/C reads like this: under setting [8], 95 % of control; under setting [4], 70 % of control; under setting [5], 86 % of control; under setting [10], 61 % of control; under setting [9], 50 % of control.
